Results from paper PMC6104039 (Nature Communications, 2018).

Legend:
Type in all cases: biochemical
human CerS4 = biological target: T1, human CerS4 (Homo sapiens, UniProt Q9HA82); assay: Ceramide synthase assay, NBD-dihydrosphingosine, C18:0-CoA; U251 cells expressing human CerS4; conditions: inhibitor range 10 nM–100 μM; read-out: IC50 hCerS4
T1 construct: host or cells: U251
T1 sequence (Q9HA82 1-394): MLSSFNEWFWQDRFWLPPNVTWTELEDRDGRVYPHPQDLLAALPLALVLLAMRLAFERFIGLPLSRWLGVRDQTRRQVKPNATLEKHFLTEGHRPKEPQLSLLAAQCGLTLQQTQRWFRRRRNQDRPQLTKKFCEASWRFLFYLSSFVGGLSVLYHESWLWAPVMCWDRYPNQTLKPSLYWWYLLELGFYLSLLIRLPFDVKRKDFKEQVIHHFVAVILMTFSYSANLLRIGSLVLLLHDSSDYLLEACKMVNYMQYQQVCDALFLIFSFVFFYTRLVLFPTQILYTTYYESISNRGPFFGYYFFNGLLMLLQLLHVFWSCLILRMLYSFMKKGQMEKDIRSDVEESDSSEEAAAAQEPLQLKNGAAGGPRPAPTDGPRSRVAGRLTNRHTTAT
Experimental: (§1) Ceramide synthase assays were carried out using an HPLC-based assay with a fluorescent NBD-dihydrosphingosine substrate. All cell lines used for these assays were originally sourced from ATCC. […] Human CerS expression plasmids (pCMV6 plasmids from Origene) were transfected using FuGene-6 transfection reagent, and cells were harvested 24 h after transfection in 20 mM Hepes pH 7.4, 10 mM KCl, 1 mM dithiothreitol, 3 mM β-glycerophosphate, and EDTA-free complete protease inhibitor cocktail (Roche). Cells were sonicated in a Diagenode Bioruptor sonicating bath for 5 min, after which cell extracts were cleared by centrifugation at 800 × g for 10 min. Protein concentration in the supernatant was assayed using the bicinchoninic acid (BCA) assay, and the supernatant stored at −80 °C. COS cells were infected with lentiviral constructs expressing murine CerS1, 2, or 5, then homogenised as described above.
(§2) The reaction buffer consisted of 20 mM Hepes pH 7.4, 25 mM KCl, 2 mM MgCl2, 0.5 mM dithiothreitol, 0.1% fatty acid free BSA, 10 μM NBD-dihydrosphingosine and 50 μM fatty acid free BSA. C18:0-CoA was used as the fatty acyl substrate for CerS1 and CerS4; C24:1-CoA for CerS2; and C16:0-CoA for CerS5 and CerS6. All reactions were run in triplicate. Test inhibitors were added, after which reactions were started with the addition of 2.5–25 μg lysate protein (optimised depending on the particular CerS isoform being assayed). Assays were run for 30 min at 37 °C, and stopped with the addition of 200 μL methanol. The reaction mixture was transferred to a glass HPLC vial with 300 μL fused glass insert (Thermo Fisher Scientific) and NBD-dihydroceramide reaction products were analysed on a Thermo Scientific Surveyor HPLC connected to a Shimadzu RF-10AXL fluorescent detector (set to gain of 3). […] Data was acquired over a 12 min chromatography run using: solvent A, 0.2% formic acid, 2 mM ammonium formate in water; solvent B, 0.2% formic acid, 1 mM ammonium formate in methanol. The gradient started at 20:80 A/B, increasing to 5:95 A/B over 2 min, then to 100% B over 6 min. The gradient was then held at 100% B for 2 min, before re-equilibration to 20:80 A/B for a further 2 min. Peak areas were integrated using Xcalibur software (Thermo Fisher Scientific).

murine CerS5 = biological target: T2, murine CerS5 (Mus musculus, UniProt Q9D6K9); assay: Ceramide synthase assay, NBD-dihydrosphingosine, C16:0-CoA; COS cells expressing murine CerS5; conditions: inhibitor range 10 nM–100 μM; read-out: IC50 mCerS5
T2 construct: expressed in transfected cells; host or cells: COS cells (lentiviral infection)
T2 sequence (Q9D6K9 1-414): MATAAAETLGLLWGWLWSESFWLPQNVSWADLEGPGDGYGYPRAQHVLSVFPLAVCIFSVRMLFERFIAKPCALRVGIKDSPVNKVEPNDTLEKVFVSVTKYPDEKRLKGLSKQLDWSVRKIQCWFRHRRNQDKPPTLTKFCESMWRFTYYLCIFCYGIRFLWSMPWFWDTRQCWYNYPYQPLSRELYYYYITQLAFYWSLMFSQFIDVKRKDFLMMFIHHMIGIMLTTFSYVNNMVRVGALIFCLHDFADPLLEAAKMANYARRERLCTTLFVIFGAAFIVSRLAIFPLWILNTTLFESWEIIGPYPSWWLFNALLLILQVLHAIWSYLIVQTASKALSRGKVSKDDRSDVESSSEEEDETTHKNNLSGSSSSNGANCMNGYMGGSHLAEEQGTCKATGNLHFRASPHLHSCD
Experimental: as §1, §2

human CerS6 = biological target: T3, human CerS6 (Homo sapiens, UniProt Q6ZMG9); assay: Ceramide synthase assay, NBD-dihydrosphingosine, C16:0-CoA; HEK293 cells expressing human CerS6; conditions: inhibitor range 10 nM–100 μM; read-out: IC50 hCerS6
T3 construct: host or cells: HEK293
T3 sequence (Q6ZMG9 1-384): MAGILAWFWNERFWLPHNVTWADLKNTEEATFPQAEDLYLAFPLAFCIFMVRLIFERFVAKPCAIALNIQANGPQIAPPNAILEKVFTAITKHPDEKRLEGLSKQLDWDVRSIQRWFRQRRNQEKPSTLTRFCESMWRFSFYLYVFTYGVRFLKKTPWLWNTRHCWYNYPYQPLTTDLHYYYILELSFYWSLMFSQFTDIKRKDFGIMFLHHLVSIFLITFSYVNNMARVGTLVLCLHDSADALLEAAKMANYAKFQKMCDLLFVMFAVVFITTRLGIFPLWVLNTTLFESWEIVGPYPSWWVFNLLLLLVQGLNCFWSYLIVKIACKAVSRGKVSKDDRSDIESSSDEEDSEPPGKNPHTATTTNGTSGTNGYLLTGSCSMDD
Experimental: as §1, §2

Compound | IC50 (human CerS4) [µM] | IC50 (murine CerS5) [µM] | IC50 (human CerS6) [µM]
C[C@@](N)(CO)CCc1ccc(OCc2ccccc2)cc1 [G024, (2S)-2-amino-4-(4′-benzyloxyphenyl)-2-methyl-1-butanol] | 18 ± 0.12 | 24.3 ± 0.22 | 8.5 ± 0.13
C[C@@](N)(CO)CCc1ccc(OCc2ccc(Cl)c(Cl)c2)cc1 [P053, (S)-2-amino-4-(4-(3,4-dichlorobenzyloxy)phenyl)-2-methylbutan-1-ol] | 17.2 ± 0.09 | 7.2 ± 0.1 | 11.4 ± 0.17
CCCCCCCCc1ccc(CCC(N)(CO)CO)cc1 [FTY720, reference compound] | 26 ± 0.18 | 15 ± 0.07 | 5.8 ± 0.2
CCCC[C@@H](C)[C@@H](OC(=O)C[C@@H](CC(=O)O)C(=O)O)[C@H](C[C@@H](C)C[C@H](O)CCCC[C@@H](O)C[C@H](O)[C@H](C)N)OC(=O)C[C@@H](CC(=O)O)C(=O)O [FB1, reference compound] | 0.92 ± 0.06 | 0.5 ± 0.05 | 0.29 ± 0.05
